Literature values as cited in patent US7645466B2, “Methods for deriving, isolating, and/or extracting amino acid compositions from Fenugreek seed” (TSI Group Limited, priority 2004, dated 2010).

System: pancreatic beta cell
Conditions: micromolar concentrations; direct effect on pancreatic beta cell, glucose dependent

For C[C@@H]([C@H](C)O)[C@H](N)C(=O)O [4-hydroxyisoleucine], the glucose-induced insulin secretion is listed as “stimulate glucose-induced insulin secretion in micromolar concentrations”.
